Measured values: patent US5294553A, “Method for the gravimetric determination of oil and grease” (priority 1993, dated 1994)
Where two headings read alike, the source gives them in different places.

What was measured:
[1] = cited from earlier work
[2] = Table 1A, cited from earlier work
[3] = cited from earlier work; remark: listed apart in the source
[4] = tested on: Rat; conditions: inhalation, Table 1B; cited from earlier work
[5] = Amount of No. 6 Fuel dissolved; format: physicochemical; conditions: for Amount of No. 6 Fuel Dissolved: Table 1B
[6] = cited from earlier work; remark: listed apart in the source

c1ccccc1 [Benzene]
ε, Dielectric Constant ([1]; Table 1A): 2.27
Sol. in Water ([2]; in words): sl. sol.

CCC(C)=O [Butanone]
ε, Dielectric Constant ([1]; Table 1A): 18.5
Sol. in Water ([2]; in words): sol.

S=C=S [Carbon disulfide]
Boil Pt. ([3]; Table 1A): 46 °C
ε, Dielectric Constant ([1]; Table 1A): 2.64

ClC(Cl)(Cl)Cl [Carbon tetrachloride]
Boil Pt. ([3]; Table 1A): 76 °C
Boil Pt. ([3]; Table 1B): 76 °C
ε, Dielectric Constant ([1]; -20° C., Table 1B): 2.238
ε, Dielectric Constant ([1]; Table 1A): 2.24
Sol. in Water ([2]; in words): Vsl. sol.
LC50(ihl) -Rat [4]: 4,000 ppm

ClC(Cl)Cl [Chloroform]
Boil Pt. ([3]; Table 1A): 60 °C
Boil Pt. ([3]; Table 1B): 60 °C
ε, Dielectric Constant ([1]; -20° C., Table 1B): 4.80
ε, Dielectric Constant ([1]; Table 1A): 4.81
Sol. in Water ([2]; in words): Vsl. sol.
LC50(ihl) -Rat [4]: 8,000 ppm

C1=CCCCC1 [Cyclohexene]
Boil Pt. ([3]; Table 1A): 82 °C
ε, Dielectric Constant ([1]; Table 1A): 2.20
Sol. in Water ([2]; in words): sl. sol.

C1CCCC1 [Cyclopentane]
Boil Pt. ([3]; Table 1A): 49 °C
ε, Dielectric Constant ([1]; Table 1A): 1.965
Sol. in Water ([2]; in words): sl. sol.

C1=CCCC1 [Cyclopentene]
Boil Pt. ([3]; Table 1A): < 49 °C
ε, Dielectric Constant ([1]; Table 1A): 2.20

CCOC(C)=O [Ethyl acetate]
Amount of No. 6 Fuel Dissolved [5]: 31.71%
Boil Pt. ([3]; Table 1A): 77 °C
Boil Pt. ([3]; Table 1B): 77 °C
ε, Dielectric Constant ([1]; -20° C., Table 1B): 6.02
ε, Dielectric Constant ([1]; Table 1A): 6.02
Hazards, Comments ([6]; Table 1A, code numbers): 44
Sol. in Water ([2]; in words): sl. sol.
LC50(ihl) -Rat [4]: 1,600 ppm

C=CC(=O)OCC [Ethyl acrylate]
Boil Pt. ([3]; Table 1A): 99 °C

CCOCC [Ethyl ether]
Boil Pt. ([3]; Table 1A): 34.6 °C
ε, Dielectric Constant ([1]; Table 1A): 4.34
Sol. in Water [2]: 7.5 g/100 g

CCSC [Ethyl methyl sulfide]
Boil Pt. ([3]; Table 1A): 66 °C
ε, Dielectric Constant ([1]; Table 1A): ~5.72
Sol. in Water ([2]; in words): V. sl. sol.

CCSCC [Ethyl sulfide]
Boil Pt. ([3]; Table 1A): 91 °C
ε, Dielectric Constant ([1]; Table 1A): 5.72
Sol. in Water ([2]; in words): V. sl. sol.

FC(F)(Cl)C(F)(Cl)Cl [FREON ®, 1,1,2-trichloro-1,2,2-trifluoroethane]
Amount of No. 6 Fuel Dissolved [5]: 41.01%
Boil Pt. ([3]; Table 1A): 50 °C
Boil Pt. ([3]; Table 1B): 50 °C
Sol. in Water ([2]; in words): insol.

c1ccoc1 [Furan]
Boil Pt. ([3]; Table 1A): 32 °C
Sol. in Water ([2]; in words): sl. sol.

C=CCCCCC [Heptene-1]
Boil Pt. ([3]; Table 1A): 93 °C
ε, Dielectric Constant ([1]; Table 1A): ca. 2.05
Sol. in Water ([2]; in words): ca. sl. sol.

CCCCCC [Hexane, n-hexane]
solubility of No. 6 oil, in words ([5]; compared with hexane/methyl tertiary-butyl ether (80:20 v/v)): much less soluble in hexane
ε, Dielectric Constant ([1]; Table 1A): 1.89
adverse effects on absorption through the skin ([6]; nervous system): can be absorbed through the skin causing adverse effects to the nervous system, including a lack of feeling in the extremities and dizziness
Sol. in Water ([2]; in words): insol.

C=CCCCC [Hexene-1]
Boil Pt. ([3]; Table 1A): 63 °C
ε, Dielectric Constant ([1]; Table 1A): ca. 2.05
Sol. in Water ([2]; in words): ca. sl. sol.

ClCCl [Methyl chloride]
Boil Pt. ([3]; Table 1B): 40 °C

CC1CCCC1 [Methyl cyclopentane]
Boil Pt. ([3]; Table 1A): 72 °C
Sol. in Water ([2]; in words): V. sl. sol.

CSC [Methyl sulfide]
Boil Pt. ([3]; Table 1A): 37 °C
Boil Pt. ([3]; Table 1B): 37 °C
ε, Dielectric Constant ([1]; -20° C., Table 1B): 6.2
ε, Dielectric Constant ([1]; Table 1A): 6.2
Sol. in Water ([2]; in words): sl. sol.

COC(C)(C)C [Methyl t-Butyl ether, methyl tertiary-butyl ether]
Amount of No. 6 Fuel Dissolved [5]: 99.74%
Boil Pt. ([3]; Table 1A): 55 °C
Boil Pt. ([3]; Table 1B): 55 °C
ε, Dielectric Constant ([1]; -20° C., Table 1B): 4.0
ε, Dielectric Constant ([1]; Table 1A): ca. 4.00
Sol. in Water ([2]; in words): sl. sol.

ClCCl [Methylene Chloride]
Boil Pt. ([3]; Table 1A): 40.2 °C
ε, Dielectric Constant ([1]; Table 1A): 9.08

C=CCCC [Pentene-1]
Boil Pt. ([3]; Table 1A): 37 °C
ε, Dielectric Constant ([1]; Table 1A): 2.10
Sol. in Water [2]: 0.04%

c1ccsc1 [Thiophene]
Boil Pt. ([3]; Table 1A): 83 °C
ε, Dielectric Constant ([1]; Table 1A): 2.76
Sol. in Water ([2]; in words): sl. sol.

C=COC(C)=O [Vinyl acetate]
Boil Pt. ([3]; Table 1A): 72 °C
Sol. in Water ([2]; in words): sl. sol.

C=COC=C [Vinyl ether]
Boil Pt. ([3]; Table 1A): 28 °C
ε, Dielectric Constant ([1]; Table 1A): 3.94
Sol. in Water ([2]; in words): sl. sol.

CO [methyl alcohol]
dielectric constant ε ([1]; alcohols): 31
